{"source": "patent US6623723B2", "about": "“Method for treating bronchial constriction and bronchospasm” (Cellular Sciences Inc., priority 2001, dated 2003)", "test_system": "subjects with mild bronchial asthma", "assay": "Lung function (FEV-1 and PEF by spirometry) after a single inhaled dose in mild asthmatics", "type": "in vivo, human", "conditions": "single 5 ml inhaled dose", "experimental": "Three concentrations of sodium pyruvate were studied; 0.5 mM, 1.5 mM and 5.0 mM. Sixty (60) subjects completed the study protocol. The 60 subjects included fifteen (15) non-asthmatic control individuals and forty-five (45) individuals with mild bronchial asthma. […] The total subject population was composed of 40 females and 20 males with a mean population age of 36.6 years (range of 18-66 years).\nIndividuals with mild bronchial asthma were divided into three groups of 15 subjects; each group received one of the three concentrations of sodium pyruvate. Each subject each inhaled a single dose of physiological saline (Visit 1) and on a return visit inhaled a single dose of 5.0 ml of one of the concentrations of sodium pyruvate (Visit 2).\nLung function assessments and vital signs were monitored at baseline (pre-dose) and at 15 minutes, 30 minutes 1 hour, 2 hours and 4 hours post administration. On a return visit (Visit 2), each subject inhaled a single 5 ml dose of sodium pyruvate in physiological saline. The physiological lung functions assessed included Forced Expiratory Volume in One Second (FEV-1) and Peak Expiratory Flow (PEF).\nAn FEV-1 and PEF values are obtained during routine spirometry testing. FEV-1 is the volume of air expelled in the first second of a forced expiration starting from full inspiration. It is the most widely accepted indicator of obstructive lung disease severity and used because it is objective and reproducible. PEF is the greatest flow rate that can be sustained for 10 milliseconds on forced expiration from full inflation of the lungs. Changes of greater than 10% FEV-1 and greater than 25% in PEF are generally accepted as clinically relevant ant were used as standards in data evaluation for this study."}
{"compound": "CC(=O)C(=O)[O-].[Na+]", "note": "[sodium pyruvate]", "values": [{"measurement": "percent change in FEV-1", "setting": "0.5 mM sodium pyruvate, 15 minutes (p=0.012), 30 minutes (p=0.039), 1 hour (p=0.054), 2 hours (p=0.0001), compared to inhalation of physiological saline", "result": "greater than 10%"}, {"measurement": "percent change in PEF", "setting": "0.5 mM sodium pyruvate, 15 minutes (p=0.014), 30 minutes (p=0.027), 1 hour (p=0.012), 2 hours (p=0.024), 4 hours (p=0.018), compared to inhalation of physiological saline", "result": "greater than 25%"}, {"measurement": "change in FEV-1", "setting": "1.5 mM sodium pyruvate", "result": "No significant change"}, {"measurement": "change in PEF", "setting": "1.5 mM sodium pyruvate", "result": "No significant change"}, {"measurement": "change in FEV-1", "setting": "5.0 mM sodium pyruvate", "result": "No significant change"}, {"measurement": "change in PEF", "setting": "5.0 mM sodium pyruvate", "result": "No significant change"}]}
